The record followed here is US20220073536A1 (Rigel Pharmaceuticals, Inc., priority 2003, published 2022).

In the experiment the test system is cultured human mast cells (CHMC). In words: CHMC low cell density IgE activation: tryptase assay. The format is cell-based. Summed up:
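Fluorogenic readout of tryptase released into the supernatant (30 min substrate incubation, room temperature) measures degranulation. Cells were plated at low density (1000–1500/well, varied by donor) and triggered with anti-IgE for 30 min at 37 °C.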

Where [1] appears, read: Homo sapiens, Mast cell, low cell density CHMC, IgE activation, tryptase, 8 pt, read-out: LD Tryptase, CHMC, IgE, 8 pt.
The mark [2] stands for this setting: Homo sapiens, Mast cell, low cell density, IgE activation, 3 pt, read-out: LD Tryptase, CHMC, IgE, 3 pt.
[3] abbreviates: Homo sapiens, Mast cell, low cell density, IgE activation, 8 pt, read-out: LD Tryptase, CHMC, IgE, 8 pt.
Setting [4] is: low cell density CHMC, IgE activation, tryptase, 3 pt, read-out: LD Tryptase, CHMC, IgE, 3 pt.
Where [5] appears, read: low cell density CHMC, IgE activation, tryptase, 8 pt, read-out: LD Tryptase, CHMC, IgE, 8 pt.
Setting [6] is: Homo sapiens, Mast cell, low cell density CHMC, IgE activation, tryptase release, 3 pt, read-out: LD Tryptase, CHMC, IgE, 3 pt.
Setting [7] is: Homo sapiens, Mast cell, low cell density CHMC, IgE activation, tryptase release, 8 pt, read-out: LD Tryptase, CHMC, IgE, 8 pt.
Setting [8] is: Homo sapiens, Mast cell, low cell density CHMC, IgE activation, tryptase, 3 pt, read-out: LD Tryptase, CHMC, IgE, 3 pt.

Structures can show the parent of a compound that is named as a salt. Where two headings read alike, the source gives them in different places.

`CC1(C)Oc2ccc(Nc3nc(Nc4ccc5c(cnn5CC5CC5)c4)ncc3F)cc2NC1=O` [Compound 736, N2-[1-(Cyclopropylmethyl)indazol-5-yl]-N4-(2,2-dimethyl-3-oxo-4H-benz[1,4]oxazin-6-yl)-5-fluoro-2,4-pyrimidinediamine]: the IC50 under setting [1] was < 10 µM.

With `Fc1cnc(Nc2ccc3[nH]c(C(F)(F)F)nc3c2)nc1Nc1ccc(Cl)c(Cl)c1` [Compound 864, N4-(3,4-Dichlorophenyl)-5-fluoro-N2-(2-trifluoromethyl-1H-benzimidazol-5-yl)-2,4-pyrimidinediamine Ethanesulfonic Acid Salt], for the setting “Homo sapiens, Mast cell, read-out: LD Tryptase, CHMC, IgE, 3 pt”, the IC50 is > 10 µM.

With `CCOCCCn1ncc2cc(Nc3ncc(F)c(Nc4ccc5c(c4)NC(=O)[C@H](C)O5)n3)ccc21` [Compound 874, (S)-N2-[1-(3-Ethoxypropyl)indazol-5-yl]-5-fluoro-N4-(2-methyl-3-oxo-2H,4H-benz[1,4]oxazin-6-yl)-2,4-pyrimidinediamine], the IC50 runs as follows: under setting [2], < 10 µM; under setting [3], < 10 µM.

In the case of `CCOC(=O)N1CCN(c2cccc(Nc3ncc(F)c(Nc4ccc5c(n4)NCCO5)n3)c2)CC1` [Compound 1138, N4-(3,4-Dihydro-2H,4H-5-pyrid[1,4]oxazin-6-yl)-N2-[3-(4-ethoxycarbonylpiperazino)phenyl]-5-fluoro-2,4-pyrimidinediamine], the IC50 is, setting by setting: under setting [4], < 10 µM; under setting [5], < 10 µM.

In the case of `COc1ccc(Nc2nc(N)nc(-c3ccc4c(c3)nc(C(F)(F)F)n4CCO)c2F)cc1Cl` [Compound 917], the IC50 under setting [3] was < 10 µM.

For the compound `O=C1CCCC(=O)N1CCCn1ncc2cc(Nc3ncc(F)c(Nc4ccc(Cl)c(Cl)c4)n3)ccc21` [Compound 859, N4-(3,4-Dichlorophenyl)-N2-[1-[3-(2,6-dioxopiperidino)propyl]indazol-5-yl]-5-fluoro-2,4-pyrimidinediamine], the IC50 is, setting by setting: under setting [6], < 10 µM; under setting [7], < 10 µM.

On to `CN1CCN(c2ccc(Nc3ncc(F)c(NC4CCC4)n3)cc2CO)CC1` [Compound 1235], for which, under setting [1], the IC50 was > 10 µM.

Consider `CC(C)n1ncc2cc(Nc3ncc(F)c(Nc4ccc5c(c4)NC(=O)C(C)(C)O5)n3)ccc21` [Compound 781, N4-(2,2-Dimethyl-3-oxo-4H-benz[1,4]oxazin-6-yl)-5-fluoro-N2-[1-(1-methylethyl)indazol-5-yl]-2,4-pyrimidinediamine], for which the IC50 under setting [7] was < 10 µM.

On to `CN1CCN(c2ccc(Nc3ncc(F)c(NC4CCC4)n3)cc2Cl)CC1` [Compound 1188, N4-Cyclobutyl-5-fluoro-N2-[3-chloro-4-(4-methylpiperazino)phenyl]-2,4-pyrimidinediamine], for which the IC50 under setting [8] is < 10 µM.

Take “N4- (2,2-Dimethyl-3-oxo-4H-benz[1,4]oxazin-6-yl)-5-fluoro-N2-{1-methyl-2-[ (methylsulfonyl)methyl]benzimidazol-5-yl}-2,4-pyrimidinediamine [Compound 967]”: the IC50 is < 10 µM (low cell density, IgE activation, 3 pt, read-out: LD Tryptase, CHMC, IgE, 3 pt) and < 10 µM (low cell density, IgE activation, 8 pt, read-out: LD Tryptase, CHMC, IgE, 8 pt).

Turning to `Cn1nc(-c2ccccc2)cc1Nc1nc(Nc2cccc(-c3ncco3)c2)ncc1F` [Compound 526], under setting [2], the IC50 is < 10 µM.

`CC1C(=O)Nc2cc(Nc3nc(Cl)ncc3F)ccc2S1(=O)=O` (racemic) [Compound 317, racemic-N2-Chloro-5-fluoro-N4-(2-methyl-1,1,3-trioxo-2H,4H-benzo[1,4]thiazin-6-yl)-4-pyrimidineamine]: the IC50 (low cell density CHMC, IgE activation, tryptase release, 3 pt, read-out: LD Tryptase, CHMC, IgE, 3 pt) is > 10 µM.

On to `CCOCCCn1ncc2cc(Nc3ncc(F)c(Nc4ccc5c(c4)NC(=O)C(C)(C)O5)n3)ccc21` [Compound 873, N4-(2,2-Dimethyl-3-oxo-4H-benz[1,4]oxazin-6-yl)-N2-[1-(3-ethoxypropyl)indazol-5-yl]-5-fluoro-2,4-pyrimidinediamine], for which the IC50 is, setting by setting: under setting [2], < 10 µM; under setting [3], < 10 µM.

In the case of `NC(=O)c1ccc(Nc2nc(Nc3cccc(O)c3)ncc2F)cc1` [Compound 1334], the IC50 reads like this: under setting [8], < 10 µM; under setting [1], < 10 µM.

In the case of `Cn1ncc2ccc(Nc3ncc(F)c(Nc4ccc5c(c4)NC(=O)C(C)(C)S5)n3)cc21` [Compound 311], the IC50 was < 10 µM under setting [6] and < 10 µM under setting [7].

Consider “N4- (Cyclopentyl)-5-fluoro-N2- (4-[N-[methoxycarbonylmethylene]aminocarbonyl]phenyl)-2,4-pyrimidinediamine [Compound 1351]”, for which the IC50 by setting is: under setting [4], < 10 µM; under setting [5], < 10 µM.

As for `Cc1nn(C)c2cc(Nc3ncc(F)c(Nc4ccc5c(c4)NC(=O)C(C)(C)O5)n3)ccc12` [Compound 754, N2-(1,3-Dimethylindazol-6-yl)-N4-(2,2-dimethyl-3-oxo-4H-benz[1,4]oxazin-6-yl)-5-fluoro-2,4-pyrimidinediamine], the IC50 was < 10 µM under setting [8] and < 10 µM under setting [1].

Take `COc1ccc(Nc2ncc(F)c(Nc3ccc(C(N)=O)cc3)n2)cc1Cl` [Compound 1336]: the IC50 is < 10 µM under setting [8] and < 10 µM under setting [1].

With `COC(=O)C(C)(C)Oc1ccc(Nc2nc(Nc3cc(C)cc(C)c3)ncc2F)cc1Cl` [Compound 402, N4-[3-Chloro-4-(methoxycarbonyl-1,1-dimethylmethyleneoxy)phenyl]-N2-(3,5-dimethylphenyl)-5-fluoro-2,4-pyrimidinediamine], the IC50 under setting [5] was < 10 µM.

As to `Cc1cc(Nc2ncc(F)c(NC3CC(C)(C)N(C)C(C)(C)C3)n2)ccc1N1CCN(C)CC1` [Compound 1223], under setting [8], the IC50 is < 10 µM.

Take `COc1cc(Nc2nc(Nc3cc4cnn(C)c4cc3C)ncc2F)ccc1F` [Compound 759, N2-(1,6-Dimethylindazol-5-yl)-5-fluoro-N4-(4-fluoro-3-methoxyphenyl)-2,4-pyrimidinediamine]: under setting [8], the IC50 was < 10 µM.

In the case of `CC(C)n1ncc2ccc(Nc3ncc(F)c(Nc4ccc5c(c4)NC(=O)C(C)(C)O5)n3)cc21` [Compound 785, N4-(2,2-Dimethyl-3-oxo-4H-benz[1,4]oxazin-6-yl)-5-fluoro-N2-[1-(1-methylethyl)indazol-6-yl]-2,4-pyrimidinediamine], the IC50 under setting [7] is < 10 µM.

Turning to `Cn1c(=O)[nH]c2cc(Nc3ncc(F)c(Nc4ccc(Cl)c(Cl)c4)n3)ccc21` [Compound 904], the IC50 is > 10 µM under setting [2] and > 10 µM under setting [3].

Consider `O=C1CSc2ccc(Nc3nc(Nc4ccc5[nH]ncc5c4)ncc3F)cc2N1` [Compound 288], for which the IC50 under setting [7] was < 10 µM.

For the compound `Cc1cc(N2CCN(C)CC2)ncc1Nc1ncc(F)c(NC(C)C)n1` [Compound 1248], the IC50 under setting [8] is > 10 µM.

For the compound `CN1CCN(c2ccc(Nc3ncc(F)c(NC4CCCCC4)n3)cc2Cl)CC1` [Compound 1199, N2-[3-Chloro-4-(4-methylpiperazino)phenyl]-N4-cyclohexyl-5-fluoro-2,4-pyrimidinediamine Bis Hydrogen Chloride Salt], the IC50 under setting [5] was < 10 µM.

Turning to `CN1CCN(c2ccc(Nc3ncc(F)c(Nc4cc(C5CC5)n[nH]4)n3)cc2Cl)CC1` [Compound 1196, N2-[3-Chloro-4-(4-methylpiperazino)phenyl]-N4-(3-cyclopropyl-1H-pyrazol-5-yl)-5-fluoro-2,4-pyrimidinediamine], under setting [8], the IC50 was < 10 µM.

As to `Cc1cc(C)cc(Nc2nc(Nc3cc(Cl)c(O)c(Cl)c3)ncc2F)c1` [Compound 559], the IC50 is, setting by setting: under setting [2], < 10 µM; under setting [3], < 10 µM.

With `CC1(C)Oc2ccc(Nc3nc(N)nc(-c4ccc5c(c4)nc(C(F)(F)F)n5CCO)c3F)cc2NC1=O` [Compound 918], the IC50 reads like this: under setting [2], < 10 µM; under setting [3], < 10 µM.

`Cc1cc(C)cc(Nc2ncc(F)c(Nc3ccc4c(c3)NC(=O)C(C)S4)n2)c1` (centres unmarked) [Compound 271]: the IC50 under setting [7] was < 10 µM.

As to `Fc1cnc(Nc2ccc3c(c2)OCCO3)nc1Nc1ccc2c(c1)OC(F)(F)C(F)(F)O2` [Compound 367], the IC50 under setting [4] was < 10 µM and the IC50 under setting [5] was < 10 µM.

Consider `COc1ccc(Nc2nc(Nc3ccc4oncc4c3)ncc2F)cc1Cl` [Compound 925], for which the IC50 under setting [2] is < 10 µM.

For `CC1(C)Oc2ccc(Nc3nc(Nc4ccc5cnn(CC6CC6)c5c4)ncc3F)cc2NC1=O` [Compound 740, N2-[1-(Cyclopropylmethyl)indazol-6-yl]-N4-(2,2-dimethyl-3-oxo-4H-benz[1,4]oxazin-6-yl)-5-fluoro-2,4-pyrimidinediamine], under setting [1], the IC50 was < 10 µM.

As to `CN1CCN(c2ccc(Nc3ncc(F)c(NC4CCC4)n3)cc2C(F)(F)F)CC1` [Compound 1207], under setting [8], the IC50 is < 10 µM.

Consider `Cc1cc(C)cc(Nc2nc(Nc3cc(C)c(Cl)c(C)c3)ncc2F)c1` [Compound 560], for which, under setting [2], the IC50 was > 10 µM.

As for `CC1(C)COc2ccc(Nc3nc(Nc4cc5c6c(c4)c(CCO)cn6CCO5)ncc3F)cc2N1` [Compound 206, N4-(3,4-Dihydro-3,3-dimethyl-2H,4H-benz[1,4]oxazin-6-yl)-5-fluoro-N2-[6-(2-hydroxyethyl)-2,3-dihydropyrrolo[1,2,3-d,e]benzoxazin-8-yl]-2,4-pyrimidinediamine], the IC50 (low cell density CHMC, IgE activation, tryptase release, 8 pt, read-out: LD Tryptase, CHMC, IgE, 8 pt) was < 10 µM.
